Assays:
[1] = target: T1, ABL1(F317I)-phosphorylated (Homo sapiens, UniProt P00519, F317I); experiment: KINOMEscan; type: binding; details: 1 μM of compound 4; read-out: POC
T1 construct: purchased Eurofins DiscoverX Corporation

ADCK4 = ADCK4 (Homo sapiens, UniProt Q96D53); experiment: KINOMEscan; type: binding; details: 1 μM of compound 4; read-out: POC
BMPR2 = BMPR2 (Homo sapiens, UniProt Q13873); experiment: KINOMEscan; type: binding; details: 1 μM of compound 4; read-out: POC
BRK = BRK (Homo sapiens, UniProt Q13882); experiment: KINOMEscan; type: binding; details: 1 μM of compound 4; read-out: POC
DAPK1 = DAPK1 (Homo sapiens, UniProt P53355); experiment: KINOMEscan; type: binding; details: 1 μM of compound 4; read-out: POC
DYRK1B = DYRK1B (Homo sapiens, UniProt Q9Y463); experiment: KINOMEscan; type: binding; details: 1 μM of compound 4; read-out: POC
FLT4 = target: T2, FLT4 (Homo sapiens, UniProt P35916); experiment: KINOMEscan; type: binding; details: 1 μM of compound 4; read-out: POC
T2 construct: purchased Eurofins DiscoverX Corporation

HIPK4 = target: T3, HIPK4 (Homo sapiens, UniProt Q8NE63); experiment: KINOMEscan; type: binding; details: 1 μM of compound 4; read-out: POC
T3 construct: purchased Eurofins DiscoverX Corporation

INSRR = INSRR (Homo sapiens, UniProt P14616); experiment: KINOMEscan; type: binding; details: 1 μM of compound 4; read-out: POC
JNK1 = JNK1 (Homo sapiens, UniProt P45983); experiment: KINOMEscan; type: binding; details: 1 μM of compound 4; read-out: POC
JNK3 = JNK3 (Homo sapiens, UniProt P53779); experiment: KINOMEscan; type: binding; details: 1 μM of compound 4; read-out: POC
MEK4 = MEK4 (Homo sapiens, UniProt P45985); experiment: KINOMEscan; type: binding; details: 1 μM of compound 4; read-out: POC
MRCKA = MRCKA (Homo sapiens, UniProt Q5VT25); experiment: KINOMEscan; type: binding; details: 1 μM of compound 4; read-out: POC
NEK1 = NEK1 (Homo sapiens, UniProt Q96PY6); experiment: KINOMEscan; type: binding; details: 1 μM of compound 4; read-out: POC
NEK1, sequence (Q96PY6 whole entry): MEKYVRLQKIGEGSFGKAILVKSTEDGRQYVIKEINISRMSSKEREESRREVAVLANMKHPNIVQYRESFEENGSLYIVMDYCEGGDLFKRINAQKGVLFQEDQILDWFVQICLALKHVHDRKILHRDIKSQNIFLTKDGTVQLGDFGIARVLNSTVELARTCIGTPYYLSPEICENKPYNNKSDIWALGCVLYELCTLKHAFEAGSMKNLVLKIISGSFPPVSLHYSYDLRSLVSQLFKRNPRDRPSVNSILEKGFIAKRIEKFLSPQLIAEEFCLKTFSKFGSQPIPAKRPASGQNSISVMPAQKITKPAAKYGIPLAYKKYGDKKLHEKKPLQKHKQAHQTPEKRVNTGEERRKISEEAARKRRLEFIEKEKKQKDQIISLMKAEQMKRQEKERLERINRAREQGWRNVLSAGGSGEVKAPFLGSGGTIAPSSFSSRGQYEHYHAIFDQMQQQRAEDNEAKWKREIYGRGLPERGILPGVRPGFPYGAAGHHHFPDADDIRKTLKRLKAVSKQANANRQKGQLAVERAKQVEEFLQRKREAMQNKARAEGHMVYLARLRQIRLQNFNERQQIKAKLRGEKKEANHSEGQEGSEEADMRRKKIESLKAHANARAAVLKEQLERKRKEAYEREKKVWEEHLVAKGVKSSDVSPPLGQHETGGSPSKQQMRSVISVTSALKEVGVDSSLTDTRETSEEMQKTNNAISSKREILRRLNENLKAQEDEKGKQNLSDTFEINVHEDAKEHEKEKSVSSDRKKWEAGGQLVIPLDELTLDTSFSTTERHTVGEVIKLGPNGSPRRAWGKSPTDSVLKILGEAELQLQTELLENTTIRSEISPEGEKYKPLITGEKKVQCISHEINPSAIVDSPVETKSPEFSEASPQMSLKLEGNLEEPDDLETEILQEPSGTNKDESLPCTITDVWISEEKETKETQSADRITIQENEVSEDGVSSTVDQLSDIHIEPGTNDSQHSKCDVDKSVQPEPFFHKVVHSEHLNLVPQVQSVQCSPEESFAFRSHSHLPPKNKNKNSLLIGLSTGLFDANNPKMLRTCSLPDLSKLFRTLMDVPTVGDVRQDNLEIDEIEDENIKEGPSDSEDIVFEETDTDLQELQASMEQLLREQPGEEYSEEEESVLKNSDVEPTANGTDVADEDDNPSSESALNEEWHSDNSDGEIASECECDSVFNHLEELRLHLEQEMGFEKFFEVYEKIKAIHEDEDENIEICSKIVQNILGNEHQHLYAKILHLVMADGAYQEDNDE

NEK9 = target: T4, NEK9 (Homo sapiens, UniProt Q8TD19); experiment: KINOMEscan; type: binding; details: 1 μM of compound 4; read-out: POC
T4 construct: purchased Eurofins DiscoverX Corporation (KINOMEscan)

PIK3CA(E545K) = PIK3CA(E545K) (Homo sapiens, UniProt P42336, E545K); experiment: KINOMEscan; type: binding; details: 1 μM of compound 4; read-out: POC
PIP5K1A = PIP5K1A (Homo sapiens, UniProt Q99755); experiment: KINOMEscan; type: binding; details: 1 μM of compound 4; read-out: POC
PIP5K1A, sequence (Q99755 whole entry): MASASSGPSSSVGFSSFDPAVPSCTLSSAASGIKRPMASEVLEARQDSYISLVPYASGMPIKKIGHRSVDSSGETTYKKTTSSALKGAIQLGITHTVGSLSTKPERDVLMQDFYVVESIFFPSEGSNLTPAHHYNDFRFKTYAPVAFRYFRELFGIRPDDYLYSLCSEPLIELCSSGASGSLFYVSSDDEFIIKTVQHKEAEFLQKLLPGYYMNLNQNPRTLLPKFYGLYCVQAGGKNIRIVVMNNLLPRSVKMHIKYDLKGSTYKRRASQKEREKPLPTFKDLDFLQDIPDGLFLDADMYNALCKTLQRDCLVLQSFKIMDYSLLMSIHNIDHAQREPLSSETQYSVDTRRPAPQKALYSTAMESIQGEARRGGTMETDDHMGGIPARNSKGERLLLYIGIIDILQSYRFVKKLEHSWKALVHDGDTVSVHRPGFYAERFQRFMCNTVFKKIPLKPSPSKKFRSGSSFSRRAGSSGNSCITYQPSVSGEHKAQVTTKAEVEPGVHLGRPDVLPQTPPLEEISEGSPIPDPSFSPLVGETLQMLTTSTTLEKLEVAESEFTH

PLK4 = PLK4 (Homo sapiens, UniProt O00444); experiment: KINOMEscan; type: binding; details: 1 μM of compound 4; read-out: POC
PLK4, sequence (O00444 whole entry): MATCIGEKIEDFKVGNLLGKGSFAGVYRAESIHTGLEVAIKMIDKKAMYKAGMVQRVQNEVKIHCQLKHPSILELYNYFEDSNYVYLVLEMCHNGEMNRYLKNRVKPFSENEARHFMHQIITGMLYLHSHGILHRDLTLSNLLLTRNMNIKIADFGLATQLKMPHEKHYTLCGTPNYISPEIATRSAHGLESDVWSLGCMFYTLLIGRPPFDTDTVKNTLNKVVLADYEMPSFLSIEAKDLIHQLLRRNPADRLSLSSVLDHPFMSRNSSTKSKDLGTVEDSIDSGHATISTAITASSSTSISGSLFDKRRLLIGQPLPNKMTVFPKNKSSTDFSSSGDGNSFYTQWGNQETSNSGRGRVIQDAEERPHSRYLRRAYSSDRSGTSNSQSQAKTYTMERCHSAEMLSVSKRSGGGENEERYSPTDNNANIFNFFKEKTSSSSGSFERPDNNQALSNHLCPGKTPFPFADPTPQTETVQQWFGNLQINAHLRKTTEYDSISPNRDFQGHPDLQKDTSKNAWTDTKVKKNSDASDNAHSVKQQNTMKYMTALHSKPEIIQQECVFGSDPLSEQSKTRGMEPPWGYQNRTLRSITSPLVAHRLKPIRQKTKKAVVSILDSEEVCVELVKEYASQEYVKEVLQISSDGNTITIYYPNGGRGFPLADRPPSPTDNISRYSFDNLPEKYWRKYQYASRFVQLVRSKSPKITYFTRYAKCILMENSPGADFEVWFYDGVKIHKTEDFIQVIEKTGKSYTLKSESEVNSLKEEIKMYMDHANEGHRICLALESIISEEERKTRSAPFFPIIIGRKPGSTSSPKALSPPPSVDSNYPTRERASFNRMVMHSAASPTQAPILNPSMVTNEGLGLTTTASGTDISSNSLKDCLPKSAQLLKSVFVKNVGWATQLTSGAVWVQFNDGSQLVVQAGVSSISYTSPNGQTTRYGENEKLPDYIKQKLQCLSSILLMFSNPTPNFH

RET(M918T) = target: T5, RET(M918T) (Homo sapiens, UniProt P07949, M918T); experiment: KINOMEscan; type: binding; details: 1 μM of compound 4; read-out: POC
T5 construct: purchased Eurofins DiscoverX Corporation (KINOMEscan screening service)

ROCK2 = target: T6, ROCK2 (Homo sapiens, UniProt O75116); experiment: KINOMEscan; type: binding; details: 1 μM of compound 4; read-out: POC
T6 construct: purchased Eurofins DiscoverX Corporation (KINOMEscan screening service)
T6 sequence (O75116 whole entry): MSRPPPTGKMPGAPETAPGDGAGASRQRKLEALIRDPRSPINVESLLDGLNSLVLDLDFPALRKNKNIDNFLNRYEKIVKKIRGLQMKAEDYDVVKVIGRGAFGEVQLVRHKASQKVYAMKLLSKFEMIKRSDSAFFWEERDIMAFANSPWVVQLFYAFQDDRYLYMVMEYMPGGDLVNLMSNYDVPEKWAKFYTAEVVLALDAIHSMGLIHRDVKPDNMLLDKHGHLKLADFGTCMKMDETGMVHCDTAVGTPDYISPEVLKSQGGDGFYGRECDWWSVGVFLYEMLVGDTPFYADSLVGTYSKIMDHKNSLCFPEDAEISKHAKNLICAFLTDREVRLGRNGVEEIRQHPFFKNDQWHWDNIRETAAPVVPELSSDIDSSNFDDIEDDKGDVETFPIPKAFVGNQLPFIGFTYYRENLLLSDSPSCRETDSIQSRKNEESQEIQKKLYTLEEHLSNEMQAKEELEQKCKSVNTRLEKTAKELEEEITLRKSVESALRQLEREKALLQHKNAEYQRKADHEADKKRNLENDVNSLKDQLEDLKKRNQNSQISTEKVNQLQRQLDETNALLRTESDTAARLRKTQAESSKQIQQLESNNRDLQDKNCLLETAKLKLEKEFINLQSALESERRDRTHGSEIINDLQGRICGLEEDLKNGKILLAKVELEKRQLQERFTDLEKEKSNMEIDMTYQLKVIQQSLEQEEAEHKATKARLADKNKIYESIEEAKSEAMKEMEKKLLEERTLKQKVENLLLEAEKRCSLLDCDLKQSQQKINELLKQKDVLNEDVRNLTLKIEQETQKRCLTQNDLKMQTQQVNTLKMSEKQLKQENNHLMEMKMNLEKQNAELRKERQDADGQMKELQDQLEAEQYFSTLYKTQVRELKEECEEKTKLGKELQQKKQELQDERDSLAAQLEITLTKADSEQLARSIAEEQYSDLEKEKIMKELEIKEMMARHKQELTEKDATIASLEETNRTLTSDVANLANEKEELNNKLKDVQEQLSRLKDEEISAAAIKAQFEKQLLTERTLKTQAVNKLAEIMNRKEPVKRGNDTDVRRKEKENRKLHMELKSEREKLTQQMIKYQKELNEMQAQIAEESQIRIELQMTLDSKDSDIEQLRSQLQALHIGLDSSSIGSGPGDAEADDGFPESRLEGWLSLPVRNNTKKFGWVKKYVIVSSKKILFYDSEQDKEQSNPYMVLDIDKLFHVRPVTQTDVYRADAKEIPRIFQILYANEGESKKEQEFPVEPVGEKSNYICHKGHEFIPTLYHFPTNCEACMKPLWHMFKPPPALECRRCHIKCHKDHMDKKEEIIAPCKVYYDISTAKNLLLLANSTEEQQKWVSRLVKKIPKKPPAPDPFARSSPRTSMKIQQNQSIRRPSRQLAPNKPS

[2] = target: T7, RSK1(Kin.Dom.1-N-terminal) (Homo sapiens, UniProt Q15418); experiment: KINOMEscan; type: binding; details: 1 μM of compound 4; read-out: POC
T7 construct: RSK1(Kin.Dom.1-N-terminal); purchased Eurofins DiscoverX Corporation (KINOMEscan screening service)
T7 sequence (Q15418 62-321 limits assumed): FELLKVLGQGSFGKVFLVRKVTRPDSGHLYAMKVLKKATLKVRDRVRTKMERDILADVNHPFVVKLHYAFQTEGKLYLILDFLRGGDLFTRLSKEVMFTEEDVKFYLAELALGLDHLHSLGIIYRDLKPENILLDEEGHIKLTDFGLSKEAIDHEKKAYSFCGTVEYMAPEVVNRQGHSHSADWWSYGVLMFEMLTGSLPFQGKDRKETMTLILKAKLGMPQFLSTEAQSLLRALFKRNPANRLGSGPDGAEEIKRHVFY

YANK3 = target: T8, YANK3 (Homo sapiens, UniProt Q86UX6); experiment: KINOMEscan; type: binding; details: 1 μM of compound 4; read-out: POC
T8 construct: purchased Eurofins DiscoverX

ZAK = target: T9, ZAK (Homo sapiens, UniProt Q9NYL2); experiment: KINOMEscan; type: binding; details: 1 μM of compound 4; read-out: POC
T9 construct: purchased Eurofins DiscoverX

[3] = Metabolic stability in Human Liver Microsomes (HLM); type: in vitro ADME
Description: Metabolic stability in Human Liver Microsomes (HLM). Pooled liver microsomes from humans (male) were purchased from Sekisui XenoTech, LLC, Kansas City, KS, USA. Metabolic stability assays were performed in the presence of an NADPH-regenerating system consisting of 5 mM glucose-6-phosphate, 5 U/mL glucose-6-phosphate dehydrogenase, and 1 mM NADP^+. Liver microsomes (20 mg/mL), NADPH-regenerating system, and 4 mM MgCl2·6 H2O in 0.1 M TRIS-HCl-buffer (pH 7.4) were preincubated for 5 min at 37° C. and 750 rpm on a shaker. The reaction was started by adding the preheated compound at 10 mM resulting in a final concentration of 0.1 mM. The reaction was quenched at selected time points (0, 10, 20, 30, 60, and 120 min) by pipetting 100 μL of internal standard (ketoprofen) at a concentration of 150 μM in acetonitrile. The samples were vortexed for 30 s and centrifuged (21910 relative centrifugal force, 4° C., 20 min). The supernatant was used directly for LC-MS analysis. All compound incubations were conducted at least in triplicates. Additionally, a negative control containing BSA (20 mg/mL) instead of liver microsomes and a positive control using verapamil instead of compound were performed. A limit of 1% organic solvent during incubation was not exceeded. […]

468 kinases = experiment: KINOMEscan selectivity screening; type: binding; details: 1 μM

ADCK4, sequence (Q96D53 whole entry): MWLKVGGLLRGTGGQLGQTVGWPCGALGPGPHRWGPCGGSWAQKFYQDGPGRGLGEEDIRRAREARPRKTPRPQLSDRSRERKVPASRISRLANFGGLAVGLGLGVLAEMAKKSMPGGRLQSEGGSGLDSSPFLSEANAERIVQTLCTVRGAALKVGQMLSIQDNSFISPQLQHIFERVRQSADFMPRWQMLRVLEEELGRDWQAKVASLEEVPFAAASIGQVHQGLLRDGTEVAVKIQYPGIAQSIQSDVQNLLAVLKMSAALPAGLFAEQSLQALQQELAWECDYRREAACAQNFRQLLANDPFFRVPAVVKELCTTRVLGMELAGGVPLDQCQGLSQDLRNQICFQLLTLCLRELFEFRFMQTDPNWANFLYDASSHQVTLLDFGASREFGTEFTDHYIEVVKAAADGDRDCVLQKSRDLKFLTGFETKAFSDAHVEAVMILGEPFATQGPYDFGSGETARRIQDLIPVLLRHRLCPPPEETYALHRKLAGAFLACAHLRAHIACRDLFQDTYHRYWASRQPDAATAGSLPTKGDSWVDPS

C=CC(=O)Nc1ccc(OC)c(Nc2cc(-c3[nH]c(CC)nc3-c3cccc(NC(=O)c4cccc5c4NC(=O)c4ccccc4N5)c3)ccn2)c1 [Compound 4, N-(3-(5-(2-((5-Acrylamido-2-methoxyphenyl)amino)pyridin-4-yl)-2-ethyl-1H-imidazol-4-yl)phenyl)-11-oxo-10,11-dihydro-5H-dibenzo[b,e][1,4]diazepine-9-carboxamide]
remaining binding at 1 µM [1]: 84% | remaining binding at 1 µM (ADCK4): 85% | remaining binding at 1 µM (BMPR2): 88% | remaining binding at 1 µM (BRK): 96% | remaining binding at 1 µM (DAPK1): 86% | remaining binding at 1 µM (DYRK1B): 88% | remaining binding at 1 µM (FLT4): 100% | remaining binding at 1 µM (HIPK4): 92% | remaining binding at 1 µM (INSRR): 87% | remaining binding at 1 µM (JNK1): 85% | remaining binding at 1 µM (JNK3): 53% | remaining binding at 1 µM (MEK4): 100% | remaining binding at 1 µM (MRCKA): 0% | remaining binding at 1 µM (NEK1): 90% | remaining binding at 1 µM (NEK9): 83% | remaining binding at 1 µM (PIK3CA(E545K)): 100% | remaining binding at 1 µM (PIP5K1A): 75% | remaining binding at 1 µM (PLK4): 71% | remaining binding at 1 µM (RET(M918T)): 99% | remaining binding at 1 µM (ROCK2): 94% | remaining binding at 1 µM [2]: 4.7% | remaining binding at 1 µM (YANK3): 96% | remaining binding at 1 µM (ZAK): 87% | Metabolic stability in liver microsomes [3]: metabolically stable | S (35) kinome selectivity (468 kinases): 0.084

— US20260224588A1, “BENZODIAZEPINONE-DERIVED INHIBITORS OF EGFR AND HER2” (The Research Foundation for the State University of New York, priority 2023, published 2026)
